{"source": "paper doi:10.1101/2024.01.16.575974v2", "about": "“Structural insights into peptidoglycan hydrolysis by the FtsEX system in Escherichia coli during cell division” (biorxiv, 2025)", "key": {"[1]": {"biological_target": "T1, EcoFtsEX (Escherichia coli, UniProt P0A9R7)", "T1 construct": "gene ftsE; full-length, His6-tagged (pTD68 his6-FtsEX), expressed in E. coli BL21(DE3) pLysS, DDM-solubilised, in peptidiscs; two FtsE and two FtsX; with Cell division protein FtsX", "T1 sequence (P0A9R7 1-222)": "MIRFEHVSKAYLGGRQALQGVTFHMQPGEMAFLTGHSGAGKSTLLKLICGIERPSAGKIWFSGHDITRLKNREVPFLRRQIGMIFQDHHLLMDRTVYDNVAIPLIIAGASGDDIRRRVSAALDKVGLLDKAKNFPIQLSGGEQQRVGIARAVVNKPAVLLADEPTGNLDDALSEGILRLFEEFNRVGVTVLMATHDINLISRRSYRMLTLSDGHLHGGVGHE", "T1 sequence (P0AC30 1-352 partner)": "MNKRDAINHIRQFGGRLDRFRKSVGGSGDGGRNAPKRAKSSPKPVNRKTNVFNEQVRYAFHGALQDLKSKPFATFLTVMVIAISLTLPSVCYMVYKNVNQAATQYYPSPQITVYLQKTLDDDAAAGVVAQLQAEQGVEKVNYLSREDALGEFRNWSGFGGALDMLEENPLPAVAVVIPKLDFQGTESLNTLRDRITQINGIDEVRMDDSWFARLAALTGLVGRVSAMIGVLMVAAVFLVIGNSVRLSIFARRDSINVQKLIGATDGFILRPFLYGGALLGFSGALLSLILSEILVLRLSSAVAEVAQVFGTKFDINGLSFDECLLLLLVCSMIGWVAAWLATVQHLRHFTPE", "assay": "complex stabilisation against precipitation (SDS-PAGE)", "format": "binding", "settings": "2 mM nucleotide, pH 8.0"}, "[2]": {"biological_target": "T2, BsFtsEX (Bacillus subtilis, UniProt O34814)", "T2 construct": "gene ftsE; His6-FtsEX (pTD68) expressed in E. coli BL21(DE3) pLysS, DDM-solubilised, peptidiscs, SEC; with Cell division protein FtsX", "T2 sequence (O34814 1-228)": "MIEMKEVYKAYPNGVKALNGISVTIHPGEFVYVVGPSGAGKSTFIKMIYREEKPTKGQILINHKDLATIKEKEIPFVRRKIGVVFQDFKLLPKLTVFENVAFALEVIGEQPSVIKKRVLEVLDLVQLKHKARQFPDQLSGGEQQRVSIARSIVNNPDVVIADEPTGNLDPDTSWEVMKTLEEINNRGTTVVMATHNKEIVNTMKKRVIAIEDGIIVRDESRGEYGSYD", "T2 sequence (O34876 1-296 partner)": "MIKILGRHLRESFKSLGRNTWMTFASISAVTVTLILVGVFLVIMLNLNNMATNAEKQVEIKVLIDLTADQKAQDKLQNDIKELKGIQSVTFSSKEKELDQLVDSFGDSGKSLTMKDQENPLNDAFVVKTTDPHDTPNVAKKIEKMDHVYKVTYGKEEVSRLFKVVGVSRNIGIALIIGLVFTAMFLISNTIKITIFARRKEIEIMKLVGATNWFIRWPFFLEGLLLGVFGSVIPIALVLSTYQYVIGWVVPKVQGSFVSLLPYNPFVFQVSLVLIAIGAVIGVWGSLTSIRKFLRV", "assay": "complex stabilisation (SEC yield, FtsE:FtsX stoichiometry on SDS-PAGE)", "settings": "2 mM ATP, pH 8.0; indirect evidence of binding"}, "[3]": {"biological_target": "T3, PaeFtsEX (Pseudomonas aeruginosa, UniProt Q9I6C0)", "T3 construct": "gene ftsE; His6-FtsEX (pTD68) expressed in E. coli BL21(DE3) pLysS, DDM-solubilised, peptidiscs, SEC; with Cell division protein FtsX", "T3 sequence (Q9I6C0 1-223)": "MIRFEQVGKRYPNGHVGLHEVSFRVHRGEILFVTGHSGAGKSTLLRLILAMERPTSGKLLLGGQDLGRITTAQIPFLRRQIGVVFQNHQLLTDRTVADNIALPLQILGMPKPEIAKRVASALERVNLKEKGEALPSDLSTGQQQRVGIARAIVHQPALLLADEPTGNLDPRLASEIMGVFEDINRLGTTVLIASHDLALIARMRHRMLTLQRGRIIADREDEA", "T3 sequence (Q9I6B9 1-335 partner)": "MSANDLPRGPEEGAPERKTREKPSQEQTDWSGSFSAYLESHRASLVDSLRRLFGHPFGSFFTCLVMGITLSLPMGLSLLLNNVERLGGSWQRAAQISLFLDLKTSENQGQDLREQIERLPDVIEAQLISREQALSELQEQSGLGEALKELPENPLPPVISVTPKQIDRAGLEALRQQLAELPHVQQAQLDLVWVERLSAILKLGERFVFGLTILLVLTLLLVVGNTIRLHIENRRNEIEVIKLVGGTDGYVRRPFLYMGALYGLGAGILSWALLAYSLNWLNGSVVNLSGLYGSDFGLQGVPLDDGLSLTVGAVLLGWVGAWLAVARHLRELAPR", "assay": "complex stabilisation (SEC yield, FtsE:FtsX stoichiometry on SDS-PAGE)", "settings": "2 mM ATP, pH 8.0; indirect evidence of binding"}, "[4]": {"biological_target": "T4, EcoFtsEX/EnvC (Escherichia coli, UniProt P0A9R7, E163Q)", "T4 construct": "gene ftsE; full-length His6-FtsEX in peptidiscs plus EnvC delta34 (signal region removed, His6-SUMO tag cut), both expressed in E. coli BL21(DE3) pLysS; with Cell division protein FtsX", "T4 sequence (P0A9R7 1-222 E163Q)": "T1 sequence (P0A9R7 1-222) with E163Q", "T4 sequence (P0AC30 1-352 partner)": "T1 sequence (P0AC30 1-352 partner)", "T4 sequence (P37690 35-419 partner)": "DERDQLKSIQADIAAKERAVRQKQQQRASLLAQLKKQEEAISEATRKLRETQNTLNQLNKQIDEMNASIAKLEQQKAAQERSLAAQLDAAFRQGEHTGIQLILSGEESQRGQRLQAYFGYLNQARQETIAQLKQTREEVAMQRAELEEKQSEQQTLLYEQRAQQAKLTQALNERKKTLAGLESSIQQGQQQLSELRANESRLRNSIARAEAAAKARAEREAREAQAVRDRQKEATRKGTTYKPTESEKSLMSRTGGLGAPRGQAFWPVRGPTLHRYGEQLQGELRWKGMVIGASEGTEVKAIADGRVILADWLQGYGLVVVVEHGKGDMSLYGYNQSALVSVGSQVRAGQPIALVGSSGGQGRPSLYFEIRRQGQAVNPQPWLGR", "assay": "cryo-EM structure, […] Å", "format": "binding", "settings": "2 mM ATP-Mg2+, peptidiscs; hydrolysis-deficient mutant, two bound nucleotides at FtsE"}, "[5]": {"biological_target": "T5, SpFtsEX (Streptococcus pneumoniae, UniProt A0A0H2ZM82)", "T5 construct": "gene ftsE; His6-FtsEX (pTD68) expressed in E. coli BL21(DE3) pLysS, DDM-solubilised, peptidiscs, SEC; with Cell division protein FtsX", "T5 sequence (A0A0H2ZM82 1-230)": "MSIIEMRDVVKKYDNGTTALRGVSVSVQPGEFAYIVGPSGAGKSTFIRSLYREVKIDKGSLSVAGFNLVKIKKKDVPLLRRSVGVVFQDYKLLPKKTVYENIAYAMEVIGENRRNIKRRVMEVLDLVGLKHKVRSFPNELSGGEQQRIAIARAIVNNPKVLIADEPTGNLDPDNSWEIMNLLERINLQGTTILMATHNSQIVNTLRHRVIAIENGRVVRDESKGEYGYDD", "T5 sequence (Q04LE4 1-308 partner)": "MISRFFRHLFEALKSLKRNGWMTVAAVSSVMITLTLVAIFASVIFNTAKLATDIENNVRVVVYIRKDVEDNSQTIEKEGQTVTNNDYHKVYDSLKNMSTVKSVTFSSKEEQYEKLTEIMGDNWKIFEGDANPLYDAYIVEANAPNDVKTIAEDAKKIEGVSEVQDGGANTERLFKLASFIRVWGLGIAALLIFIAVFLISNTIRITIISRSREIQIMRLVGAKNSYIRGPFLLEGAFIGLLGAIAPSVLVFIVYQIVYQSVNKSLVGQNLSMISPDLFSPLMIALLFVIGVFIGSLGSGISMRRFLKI", "assay": "complex stabilisation (SEC yield, FtsE:FtsX stoichiometry on SDS-PAGE)", "settings": "2 mM ATP, pH 8.0; indirect evidence of binding"}, "[6]": {"biological_target": "T1, EcoFtsEX", "assay": "cryo-EM structure, […] Å", "format": "binding", "settings": "3 mM ATPγS, 2 mM Mg2+, peptidiscs; two bound nucleotides at FtsE"}}, "note": "Residue numbers refer to the chain shown, from its start."}
{"smiles": "Nc1ncnc2c1ncn2[C@@H]1O[C@H](COP(=O)(O)OP(=O)(O)O)[C@@H](O)[C@H]1O", "note": "[ADP]", "values": [{"measurement": "complex stabilisation against precipitation (SDS-PAGE)", "setting": "[1]", "result": "ATP analogues, including ATPγS, AMP-PNP, and ADP, also exhibited similar stabilizing effects"}]}
{"smiles": "Nc1ncnc2c1ncn2[C@@H]1O[C@H](COP(=O)(O)OP(=O)(O)NP(=O)(O)O)[C@@H](O)[C@H]1O", "note": "[AMP-PNP]", "values": [{"measurement": "complex stabilisation against precipitation (SDS-PAGE)", "setting": "[1]", "result": "ATP analogues, including ATPγS, AMP-PNP, and ADP, also exhibited similar stabilizing effects"}]}
{"smiles": "Nc1ncnc2c1ncn2[C@@H]1O[C@H](COP(=O)(O)OP(=O)(O)OP(=O)(O)O)[C@@H](O)[C@H]1O", "note": "[ATP]", "values": [{"measurement": "complex stabilisation (SEC yield, FtsE:FtsX stoichiometry on SDS-PAGE)", "setting": "[2]", "result": "regardless of the bacterial species, ATP consistently enhanced the stability of the complexes"}, {"measurement": "complex stabilisation (SEC yield, FtsE:FtsX stoichiometry on SDS-PAGE)", "setting": "[3]", "result": "regardless of the bacterial species, ATP consistently enhanced the stability of the complexes"}, {"measurement": "cryo-EM structure, 3.4 Å", "setting": "[4]", "result": "8W6J (ATP-bound FtsE^E163QX/EnvC)"}, {"measurement": "complex stabilisation (SEC yield, FtsE:FtsX stoichiometry on SDS-PAGE)", "setting": "[5]", "result": "regardless of the bacterial species, ATP consistently enhanced the stability of the complexes"}]}
{"smiles": "Nc1ncnc2c1ncn2[C@@H]1O[C@H](COP(=O)(O)OP(=O)(O)OP(O)(O)=S)[C@@H](O)[C@H]1O", "note": "[ATPγS]", "values": [{"measurement": "cryo-EM structure, 3.7 Å", "setting": "[6]", "result": "8W6I (ATPγS bound FtsEX)"}]}
